The values that follow come from US20250011288A1 (BRISTOL-MYERS SQUIBB COMPANY, priority 2021, published 2025).

The assay concerns the target T1, human RXFP1 (Homo sapiens, UniProt Q9HBX9).
T1 construct: expressed in transfected cells
T1 sequence (Q9HBX9 1-757): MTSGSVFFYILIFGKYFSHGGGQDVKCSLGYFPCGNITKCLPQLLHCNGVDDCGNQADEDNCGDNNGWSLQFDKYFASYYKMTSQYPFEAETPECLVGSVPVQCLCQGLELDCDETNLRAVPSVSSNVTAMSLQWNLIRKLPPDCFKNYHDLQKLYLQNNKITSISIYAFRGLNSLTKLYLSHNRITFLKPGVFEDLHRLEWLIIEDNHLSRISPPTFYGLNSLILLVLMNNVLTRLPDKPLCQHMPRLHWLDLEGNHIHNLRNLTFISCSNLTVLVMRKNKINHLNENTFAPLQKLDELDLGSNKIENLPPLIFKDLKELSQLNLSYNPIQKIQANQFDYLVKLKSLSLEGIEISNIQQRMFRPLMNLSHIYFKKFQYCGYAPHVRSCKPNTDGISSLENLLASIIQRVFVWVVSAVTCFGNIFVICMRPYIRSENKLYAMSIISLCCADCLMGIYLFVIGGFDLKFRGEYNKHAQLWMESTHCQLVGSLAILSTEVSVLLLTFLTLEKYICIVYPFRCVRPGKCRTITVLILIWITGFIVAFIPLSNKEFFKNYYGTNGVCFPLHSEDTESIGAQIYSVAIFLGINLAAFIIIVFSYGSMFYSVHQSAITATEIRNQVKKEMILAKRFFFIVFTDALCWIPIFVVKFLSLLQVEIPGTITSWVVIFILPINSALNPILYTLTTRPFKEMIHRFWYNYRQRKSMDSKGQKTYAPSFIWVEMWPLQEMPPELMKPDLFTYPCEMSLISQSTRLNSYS
In words: human RXFP1 (hRXFP1) HEK293 cAMP assay (HTRF). The assay is classed as cell-based. The settings on record: HEK293 cells stably expressing human RXFP1, 30 min at room temperature. The protocol:
RXFP1 Cyclic Adenosine Monophosphate (cAMP) Assays. […] Cells were dissociated and suspended in assay buffer. The assay buffer was HBSS buffer (with calcium and magnesium) containing 20 mM HEPES, 0.05% BSA, and 0.5 mM IBMX. Cells (3000 cells per well, except 1500 cell per well for HEK293 cells stably expressing human RXFP1) were added to 384-well Proxiplates (Perkin-Elmer). Cells were immediately treated with test compounds in DMSO (2% final) at final concentrations in the range of 0.010 nM to 50 µM. Cells were incubated for 30 min at room temperature. The level of intracellular cAMP was determined using the HTRF HiRange cAMP assay reagent kit (Cisbio) according to manufacturer's instructions. Solutions of cryptate conjugated anti-cAMP and d2 fluorophore-labelled cAMP were made in a supplied lysis buffer separately. Upon completion of the reaction, the cells were lysed with equal volume of the d2-cAMP solution and anti-cAMP solution. […] The potency and activity of a compound to […] cAMP production was then determined by fitting to a 4-parametric logistic equation from a plot of cAMP level versus compound concentrations.
(Changes in cAMP serve as a functional read-out for many G protein-coupled receptors.)
As a reminder, the EC50 is the concentration giving half of the maximal effect. Consider `COc1ncc(C2=NOC3CN(CC(O)C(F)(F)F)CC23)cc1C(=O)N[C@H]1[C@@H](C(=O)Nc2ccc(F)c(C(F)(F)F)c2)[C@H]2CC[C@@H]1/C2=C\C1CC1` (stereo partly drawn) [Example 180, N-[(1R,2R,3S,4R, 7Z)-7-(cyclopropyl-methylidene)-3-{[4-fluoro-3-(trifluoromethyl)phenyl]carbamoyl}bicyclo[2.2.1]heptan-2-yl]-2-methoxy-5-[5-(3,3,3-trifluoro-2-hydroxypropyl)-3aH,4H,5H,6H, 6aH-pyrrolo[3,4-d][1,2]oxazol-3-yl]pyridine-3-carboxamide], for which the midpoint of the response, the EC50, lay at 4.3 nM.
For `COc1ncc(C2=NOC3CC(C(O)C(F)(F)F)CC23)cc1C(=O)N[C@H]1[C@@H](C(=O)Nc2ccc(F)c(C(F)(F)F)c2)[C@H]2CC[C@@H]1/C2=C\CC(O)C(F)(F)F` (stereo partly drawn) [Example 129, N-((1R,2R,3S,4R,Z)-3-((4-fluoro-3-(trifluoromethyl)phenyl)carbamoyl)-7-(4,4,4-trifluoro-3-hydroxybutylidene)bicyclo[2.2.1]heptan-2-yl)-2-methoxy-5-(5-(2,2,2-trifluoro-1-hydroxyethyl)-3a,5,6,6a-tetrahydro-4H-cyclopenta[d]isoxazol-3-yl)nicotinamide] the value was 5 nM; for `CCCc1cnc(OC)c(C(=O)N[C@@H]2C3CCC(/C3=C/C(F)(F)F)[C@@H]2C(=O)Nc2ccc(F)c(C(F)(F)F)c2)n1` (stereo partly drawn) [Example 52, N-[(2R,3S,7Z)-3-{[4-fluoro-3-(trifluoromethyl)phenyl]carbamoyl}-7-(2,2,2-trifluoroethylidene)bicyclo[2.2.1]heptan-2-yl]-3-methoxy-6-propylpyrazine-2-carboxamide], 1300 nM.
On to `COc1ncc(-c2cc([C@H](OC(=O)N3CC4(COC4)C3)C(F)(F)F)ccc2F)cc1C(=O)N[C@@H]1C2CCC(/C2=C/C2CC2)[C@@H]1C(=O)Nc1ccc(F)c(C(F)(F)F)c1` (stereo partly drawn) [Example 184, (1S)-1-[3-(5-{[(2R,3S,7Z)-7-(cyclopropyl-methylidene)-3-{[4-fluoro-3-(trifluoromethyl)phenyl]carbamoyl}bicyclo[2.2.1]heptan-2-yl]carbamoyl}-6-methoxypyridin-3-yl)-4-fluorophenyl]-2,2,2-trifluoroethyl 2-oxa-6-azaspiro[3.3] heptane-6-carboxylate], for which a half-maximal effect (EC50) was put at 4.8 nM.
For `COc1ncc(C2=NOC3CC(C(O)C(F)(F)F)CC23)cc1C(=O)N[C@H]1[C@@H](C(=O)Nc2ccc(F)c(C(F)(F)F)c2)[C@H]2CC[C@@H]1/C2=C\C1CCCC1` (stereo partly drawn) [Example 173, N-[(1R,2R,3S,4R, 7Z)-7-(cyclopentyl-methylidene)-3-{[4-fluoro-3-(trifluoromethyl)phenyl]carbamoyl}bicyclo[2.2.1]heptan-2-yl]-2-methoxy-5-[5-(2,2,2-trifluoro-1-hydroxyethyl)-3aH,4H,5H,6H, 6aH-cyclopenta[d][1,2]oxazol-3-yl]pyridine-3-carboxamide] the value was 0.6 nM; for `COc1ccncc1C(=O)N[C@@H]1C2CCC(C2=C(C)C)[C@@H]1C(=O)Nc1ccc(F)c(C(F)(F)F)c1` (stereo partly drawn) [Example 2, N-[(2R,3S)-3-{[4-fluoro-3-(trifluoromethyl)phenyl]carbamoyl}-7-(propan-2-ylidene)bicyclo [2.2.1]heptan-2-yl]-4-methoxypyridine-3-carboxamide], 660 nM.
For `COc1nn(C)cc1C(=O)N[C@@H]1C2CCC(/C2=C/C(F)(F)F)[C@@H]1C(=O)Nc1ccc(F)c(C(F)(F)F)c1` (stereo partly drawn) [Example 12, N-[(2R,3S,7Z)-3-{[4-fluoro-3-(trifluoromethyl)phenyl]carbamoyl}-7-(2,2,2-trifluoroethylidene)bicyclo[2.2.1]heptan-2-yl]-3-methoxy-1-methyl-1H-pyrazole-4-carboxamide] the value was 4600 nM.
Consider `COc1ncc(C2=NO[C@H]3C[C@H](CO)CN23)cc1C(=O)N[C@@H]1C2CCC(/C2=C/C2CC2)[C@@H]1C(=O)N[C@H](C)C1(C)CC1` (stereo partly drawn) [Example 107, N-((1R,2R,3S, 4R,Z)-7-(cyclopropyl-methylene)-3-(((R)-1-(1-methylcyclopropyl)ethyl)carbamoyl)bicyclo[2.2.1]heptan-2-yl)-5-((6S,7aS)-6-(hydroxymethyl)-5,6,7,7a-tetrahydropyrrolo [1,2-d][1,2,4]oxadiazo 1-3-yl)-2-methoxynicotinamide], for which the EC50 is 2.6 nM.
Take `COc1ncncc1C(=O)N[C@@H]1C2CCC(C2=C(C)C)[C@@H]1C(=O)Nc1ccc(F)c(C(F)(F)F)c1` (stereo partly drawn) [Example 10, N-[(2R,3S)-3-{[4-fluoro-3-(trifluoromethyl)phenyl]carbamoyl}-7-(propan-2-ylidene)bicyclo [2.2.1]heptan-2-yl]-4-methoxypyrimidine-5-carboxamide]: the EC50 worked out at 5000 nM.
For `N#Cc1ccc2c(c1)CCc1c(C(=O)N[C@H]3[C@@H](C(=O)Nc4ccc(F)c(C(F)(F)F)c4)[C@H]4CC[C@@H]3/C4=C\C(F)(F)F)nn(CC(F)F)c1-2` [Example 55, 7-cyano-1-(2,2-difluoroethyl)-N-((1R,2R,3S,4R,Z)-3-((4-fluoro-3-(trifluoromethyl)phenyl)carbamoyl)-7-(2,2,2-trifluoroethylidene)bicyclo[2.2.1]heptan-2-yl)-4,5-dihydro-1H-benzo[g]indazole-3-carboxamide] the value was 360 nM.
With `COc1cc2c(cc1C(=O)N[C@H]1[C@@H](C(=O)Nc3ccc(F)c(C(F)(F)F)c3)[C@H]3CC[C@@H]1/C3=C\C1CC1)CN(S(C)(=O)=O)CC2` [Example 89, N-[(1R,2R,3S,4R)-7-(cyclopropyl-methylidene)-3-{[4-fluoro-3-(trifluoromethyl)phenyl]carbamoyl}bicyclo[2.2.1]heptan-2-yl]-2-methanesulfonyl-6-methoxy-1,2,3,4-tetrahydro-isoquinoline-7-carboxamide] the figure was 230 nM; with `COc1ncc(-c2cc([C@H](OC(=O)NC3CCC3)C(F)(F)F)ccc2F)cc1C(=O)N[C@H]1[C@@H](C(=O)N[C@H](C)C2(C)CC2)[C@H]2CC[C@@H]1/C2=C\C1CC(F)(F)C1` [Example 188, (1S)-1-[3-(5-{[(1R,2R,3S,4R,7Z)-7-[(3,3-difluorocyclobutyl)methylidene]-3-{[(1R)-1-(1-methylcyclopropyl)ethyl]carbamoyl}bicyclo[2.2.1]heptan-2-yl]carbamoyl}-6-methoxypyridin-3-yl)-4-fluorophenyl]-2,2,2-trifluoroethyl N-cyclobutyl-carbamate], 0.5 nM.
With `COc1ncc(C2=NOC3CC(C(C)O)CC23)cc1C(=O)N[C@H]1[C@@H](C(=O)Nc2ccc(F)c(C(F)(F)F)c2)[C@H]2CC[C@@H]1/C2=C\CCC(F)(F)F` (stereo partly drawn) [Example 124, N-((1R,2R,3S,4R,Z)-3-((4-fluoro-3-(trifluoromethyl)phenyl)carbamoyl)-7-(4,4,4-trifluorobutylidene)bicyclo[2.2.1]heptan-2-yl)-5-(5-(1-hydroxyethyl)-3a,5,6,6a-tetrahydro-4H-cyclopenta[d]isoxazol-3-yl)-2-methoxynicotinamide] the figure was 3.6 nM; with `COc1ccc(-c2cc(C(=O)O)ccc2F)nc1C(=O)N[C@@H]1C2CCC(/C2=C/c2cnoc2)[C@@H]1C(=O)Nc1ccc(F)c(C(F)(F)F)c1` (stereo partly drawn) [Example 27, 4-Fluoro-3-(6-{[(2R,3S,7Z)-3-{[4-fluoro-3-(trifluoromethyl)phenyl]carbamoyl}-7-[(1,2-oxazol-4-yl)methylidene]bicyclo[2.2.1]heptan-2-yl]carbamoyl}-5-methoxypyridin-2-yl)benzoic acid], 290 nM.
